Where a SMILES comes first, the peptide text is derived from it. Bridges are numbered along the chain shown (N, C = ends). [ ]: non-standard residue; d: D form. The star is where a group is joined. Val(Nα-amidino) = CC(C)[C@H](NC(=N)N)C(=O)*; Hyp = O=C(O)[C@@H]1C[C@@H](O)CN1; Pen = CC(C)(S)[C@H](N)C(=O)O; dDab = NCC[C@@H](N)C(=O)O; Orn = NCCC[C@H](N)C(=O)O; Dab = NCC[C@H](N)C(=O)O
Tests used:
Type in all cases: cell-based
[1] = tested on: Escherichia coli MCR-1 Af 45; conditions: MCR-1 Af 45
In short: (§1)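 The MIC is the lowest peptide concentration, in μg/mL, with no visible growth after 18-20 h incubation at 35 °C. Serial two-fold peptide dilutions in water with 0.002% P-80 final were added to bacteria in cation-adjusted MHII broth, about 5×10^5 CFU/mL, following modified CLSI microdilution.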

[2] = tested on: Klebsiella pneumoniae SSI3010; conditions: SSI3010
In short: as §1

[3] = tested on: Escherichia coli ATCC 25922; conditions: ATCC 25922
In short: as §1

[4] = tested on: human red blood cells (hRBC); conditions: red cells of human, 1 h, 200 μg/mL
In short: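 Percent hemolysis derived from OD540 of supernatants relative to full lysis by 2.5% Triton X-100 (PBS baseline). Washed fresh human erythrocytes (20% v/v) were exposed to 200 μg/mL peptide for 1 h at 37 °C with shaking.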

In the case of `CC[C@H](C)[C@H](NC(=O)[C@@H]1C[C@@H](O)CN1C(=O)[C@@H](NC(=N)N)C(C)C)C(=O)N[C@@H]1C(=O)N[C@@H](Cc2ccc(O)cc2)C(=O)N[C@@H](CO)C(=O)N[C@@H](CC(N)=O)C(=O)N[C@@H](CCCNC(=N)N)C(=O)N[C@@H](CCN)C(=O)N[C@@H]([C@@H](C)O)C(=O)N[C@H](CCN)C(=O)N[C@@H](CCCN)C(=O)N[C@@H](CCN)C(=O)N[C@@H](CCN)C(=O)N[C@H](C(=O)N[C@@H](Cc2ccc(O)cc2)C(=O)O)CSSC1(C)C` [Example 126, Gua-Val-Hyp-Ile-Pen-Tyr-Ser-Asn-Arg-Dab-Thr-^DDab-Orn-Dab-Dab-Cys-Tyr] ({Val(Nα-amidino)}-[Hyp]I[Pen]YSNR[Dab]T[dDab][Orn][Dab][Dab]CY-OH; disulfide 3-14), the “Escherichia coli MCR-1 Af45 MIC” value [1] is reported as 0.03125 µg/mL, the “Klebsiella pneumoniae SSI3010 MIC” value [2] is reported as 0.125 µg/mL and the “Escherichia coli ATCC 25922 MIC” value [3] is reported as 0.125 µg/mL. For the same compound, the “Hemolysis at 0.2 g/L” value [4] was under 1%.
For `CC[C@H](C)[C@H](NC(=O)[C@@H]1C[C@@H](O)CN1C(=O)[C@@H](NC(=N)N)C(C)C)C(=O)N[C@@H]1C(=O)N[C@@H](Cc2ccc(O)cc2)C(=O)N[C@@H]([C@@H](C)O)C(=O)N[C@@H](CC(N)=O)C(=O)N[C@@H](CCCNC(=N)N)C(=O)N[C@@H](CCN)C(=O)N[C@@H]([C@@H](C)O)C(=O)N[C@H](CCN)C(=O)N[C@@H](CCN)C(=O)N[C@@H](CCN)C(=O)N[C@@H](CO)C(=O)N[C@H](C(=O)N[C@@H](Cc2ccc(O)cc2)C(=O)O)CSSC1(C)C` [Example 127, Gua-Val-Hyp-Ile-Pen-Tyr-Thr-Asn-Arg-Dab-Thr-^DDab-Dab-Dab-Ser-Cys-Tyr] ({Val(Nα-amidino)}-[Hyp]I[Pen]YTNR[Dab]T[dDab][Dab][Dab]SCY-OH; disulfide 3-14), the “Escherichia coli MCR-1 Af45 MIC” value [1] was 0.0625 µg/mL, the “Klebsiella pneumoniae SSI3010 MIC” value [2] was 0.25 µg/mL and the “Escherichia coli ATCC 25922 MIC” value [3] was 0.125 µg/mL. For the same compound, the “Hemolysis at 0.2 g/L” value [4] was under 1%.
`CC[C@H](C)[C@H](NC(=O)[C@@H]1C[C@@H](O)CN1C(=O)[C@@H](NC(=N)N)C(C)C)C(=O)N[C@@H]1C(=O)N[C@@H](Cc2ccc(O)cc2)C(=O)N[C@@H]([C@@H](C)O)C(=O)N[C@@H](CC(N)=O)C(=O)N[C@@H](CCCNC(=N)N)C(=O)N[C@@H](CCN)C(=O)N[C@@H]([C@@H](C)O)C(=O)N[C@H](CCN)C(=O)N[C@@H](CCCN)C(=O)N[C@@H](CCN)C(=O)N[C@@H](CO)C(=O)N[C@H](C(=O)N[C@@H](Cc2ccc(O)cc2)C(=O)O)CSSC1(C)C` [Example 128, Gua-Val-Hyp-Ile-Pen-Tyr-Thr-Asn-Arg-Dab-Thr-^DDab-Orn-Dab-Ser-Cys-Tyr] ({Val(Nα-amidino)}-[Hyp]I[Pen]YTNR[Dab]T[dDab][Orn][Dab]SCY-OH; disulfide 3-14) was tested, and the “Escherichia coli MCR-1 Af45 MIC” value [1] was 0.125 µg/mL, the “Klebsiella pneumoniae SSI3010 MIC” value [2] was 0.25 µg/mL and the “Escherichia coli ATCC 25922 MIC” value [3] was 0.125 µg/mL. The “Hemolysis at 0.2 g/L” value [4] was under 1%.
For `CC[C@H](C)[C@H](NC(=O)[C@@H]1C[C@@H](O)CN1C(=O)[C@@H](NC(=N)N)C(C)C)C(=O)N[C@@H]1C(=O)N[C@@H](Cc2ccc(O)cc2)C(=O)N[C@@H](CCN)C(=O)N[C@@H](CC(N)=O)C(=O)N[C@@H](CCCNC(=N)N)C(=O)N[C@@H](CCN)C(=O)N[C@@H]([C@@H](C)O)C(=O)N[C@H](CCN)C(=O)N[C@@H](CCN)C(=O)N[C@@H]([C@@H](C)O)C(=O)N[C@@H](CO)C(=O)N[C@H](C(=O)N[C@@H](Cc2ccc(O)cc2)C(=O)O)CSSC1(C)C` [Example 129, Gua-Val-Hyp-Ile-Pen-Tyr-Dab-Asn-Arg-Dab-Thr-^DDab-Dab-Thr-Ser-Cys-Tyr] ({Val(Nα-amidino)}-[Hyp]I[Pen]Y[Dab]NR[Dab]T[dDab][Dab]TSCY-OH; disulfide 3-14), the “Escherichia coli MCR-1 Af45 MIC” value [1] was 0.125 µg/mL, the “Klebsiella pneumoniae SSI3010 MIC” value [2] was 0.5 µg/mL and the “Escherichia coli ATCC 25922 MIC” value [3] was 0.125 µg/mL. The “Hemolysis at 0.2 g/L” value [4] was under 1%.

Source: patent US20240336654A1, “ANTIMICROBIAL PEPTIDOMIMETICS” (SPEXIS AG, priority 2021, published 2024)
